According to patent US11358965B2, “EGFR dimer disruptors and use of the same” (THE REGENTS OF THE UNIVERSITY OF MICHIGAN, priority 2018, dated 2022):
Like-named read-outs stand apart in the source and are kept apart here.

Legend:
UACC-257 = assay: NCI 60 cell line screen, UACC-257; assay type: cell-based, human; details: Melanoma
Experimental: (§1) The activity of Compound 8C was tested against 60 different human tumor cell lines at the National Cancer Institute, using the standard NCI 60 screening protocol.

MCF7 = assay: NCI 60 cell line screen, MCF7; assay type: cell-based, human; details: Breast Cancer
Experimental: as §1

cells = assay: Clonogenic cellular assay; assay type: cell-based
HCC-2998 = assay: NCI 60 cell line screen, HCC-2998; assay type: cell-based, human; details: Colon Cancer
Experimental: as §1

EGFR = assay: EGF-induced EGFR dimerization and EGFR degradation in PC9-AZR cells; assay type: cell-based; details: 1 μM, 1 hour, then EGF 30 ng/ml
Experimental: (§2) It was determined if the response to Compound 8C correlates with inhibition of EGF-induced dimerization and degradation of EGFR. For this, PC9-AZR cells were treated for 1 hour with 1 μM Compound 8C and an additional 30 minutes with EGF (30 ng/ml) and 30 minutes with disuccinimidyl suberate (DSS, 150 μM) to cross-link interacting proteins. Lysates were prepared and immunoblotted with anti-EGFR antibodies.

[1] = system: PanIn (Pancreatic Intraepithelial Neoplasia); assay: Pancreatic tumor model (KC mice), PanIn; assay type: in vivo; details: oral gavage, 30 mg/kg body weight, daily
Experimental: 6-week old KC mice were treated with Compound 8C via oral gavage (30 mg/kg body weight, daily).

HCT-116 = assay: NCI 60 cell line screen, HCT-116; assay type: cell-based, human; details: Colon Cancer
Experimental: as §1

COLO 205 = assay: NCI 60 cell line screen, COLO 205; assay type: cell-based, human; details: Colon Cancer
Experimental: as §1

[2] = Stability in human liver microsomes; assay type: in vitro ADME
M14 = assay: NCI 60 cell line screen, M14; assay type: cell-based, human; details: Melanoma
Experimental: as §1

[3] = system: isogenic 6-Ba/F3 cell types (TKI sensitive and resistant); assay: Activity in isogenic Ba/F3 cell types
UMSCC74B = UMSCC74B xenografts, oral gavage twice weekly; assay type: in vivo, mouse; details: 30 mg/kg, vs untreated and cetuximab controls
Experimental: Mouse xenographs of UMSCC74B, a head and neck tumor cell line, were treated with Compound 8C via oral gavage (30 mg/kg body weight, twice weekly).

786-0 = assay: NCI 60 cell line screen, 786-0; assay type: cell-based, human; details: Renal Cancer
Experimental: as §1

SK-MEL-5 = assay: NCI 60 cell line screen, SK-MEL-5; assay type: cell-based, human; details: Melanoma
Experimental: as §1

RKO cells = assay: Clonogenic IC50, RKO; assay type: cell-based; details: Homo sapiens
LOX IMVI = assay: NCI 60 cell line screen, LOX IMVI; assay type: cell-based, human; details: Melanoma
Experimental: as §1

MCR5 cells = assay: Clonogenic IC50, MCR5; assay type: cell-based; details: MCR5, MCR5
Experimental: as §2
The viability of cells upon treatment was assessed by CellTiter-Blue® reagent following the manufacturer's protocol in RKO, UM10B, UM1, MCR5, and UMCC92 cells. Briefly, 10,000 cells were plated in 96-well plate in quadruplets. One day after seeding, cells were treated with a range of concentrations (0.1 to 30 micromolar). 3-days post-treatment, cells were incubated with the CellTiter-Blue® reagent for 4 hr. Only the viable cells convert the redox dye (reszurin) into a fluorescent product (resofurin). The emission of fluorescence (excitation 560 nm) was measured at […]. The IC50 value was calculated as the mean concentration of compounds required to inhibit cell proliferation as measured by the fluorescence at […] by 50 percent compared to the vehicle-treated controls.

[4] = Pharmacokinetics in tumor and plasma, NCI-H1975 xenograft mice; assay type: in vivo, nude mice; details: for half-life: nude, mouse, ip
Experimental: The IC50 and IC90 for PC9-AZR, and HCC827-AZR, range from ˜1.5 to ˜4 μM (see FIG. 7A). It is interesting to note that the peak plasma concentration was 5.4±1.5 μM for 30 minutes. […] Prolonged drug accumulation in tumors despite rapid systemic clearance is ideal for therapeutic use. The data at the 24 hour time point indicate that the agent may be suitable for daily administration. After observing selective accumulation of Compound 8C in tumors injected i.p., it was determined if Compound 8C is orally available. For oral administration, Compound 8C was formulated in 20% tween 80 in PBS (v/v) after brief sonication. Mice received 100 mg/kg by oral gavage. The concentrations of Compound 8C in tumor and plasma samples at 7 hours, 15 hours and 24 hours were determined and are plotted in FIG. 8B.
For intraperitoneal injection Compound 8C was formulated at 10 mg/mL in PBS with 5% DMSO by adjusting the pH to 5.5. For oral administration, a homogenous suspension was prepared in 20% tween 80 upon brief sonication. Initially, a single 100 mg/kg dose of Compound 8C was given i.p. (FIG. 8A) or gavaged into nude mice bearing human NCI-H1975 tumor xenografts (>150 mm3) (FIG. 8B). Mice were euthanized at time 0, 30 minutes, 1 hour, 3 hours, 7 hours, 15 hours, and at 24 hours. Tumor and plasma samples were collected. In case of mice orally gavaged, plasma and tumor samples were collected only at 7 hours, 15 hours and at 24 hours. The concentration of Compound 8C in plasma and tumor was determined and the resulting data are plotted in terms of molar concentration.

Preliminary safety test = assay type: in vivo, C57BL6 mice; details: daily dose of 30 mg/kg for one week
Experimental: A preliminary test on the safety of a daily dose of 30 mg/kg for one week was performed using C57BL6 mice. The overall health and weight of a group of 6 mice was monitored during treatment. A modest loss of 3.5±2.4% body weight after one week of treatment was observed, but mice fully recovered the weight 2-days after treatment cessation.

HT29 = assay: NCI 60 cell line screen, HT29; assay type: cell-based, human; details: Colon Cancer
Experimental: as §1

## CN1CCC2(CC1)N=C(SCC(=O)Nc1cnc3ccccc3c1)C(c1ccc(Br)cc1)=N2 [Compound 8C, 2-((3-(4-bromophenyl)-8-methyl-1,4,8-triazaspiro[4.5]deca-1,3-dien-2-yl)thio)-N-(quinolin-3-yl)acetamide]
UACC-257
  Percent Growth: −61.2%
MCF7
  Percent Growth: −42.7%
cells
  IC50 in the clonogenic cellular assay: sub-micromolar
HCC-2998
  Percent Growth: −51.3%
EGFR
  EGFR dimerization and degradation of EGFR: can inhibit EGFR dimerization and induce degradation of EGFR
[1]
  propensity for developing PanIn: significantly reduced propensity
HCT-116
  Percent Growth: −90.7%
COLO 205
  Percent Growth: −76.2%
[2]
  stability compared to pre lead (C95): approximately 20 times
M14
  Percent Growth: −83.8%
[3]
  activity in each Ba/F3 cell line: active in the nanomolar range
UMSCC74B
  tumor volume: significantly reduced tumor volume
786-0
  Percent Growth: −81.7%
SK-MEL-5
  Percent Growth: −96.2%
RKO cells
  IC50: 1.6 µM
LOX IMVI
  Percent Growth: −78.5%
MCR5 cells
  IC50: 18.6 µM
[4]; 100 mg/kg i.p., single dose, for 30 minutes
  peak plasma concentration: 5.4 ± 1.5 µM
[4]; 100 mg/kg i.p., single dose, for ≥7 hours
  peak concentration achieved in the tumor: 69.7 ± 15.68 µM
[4]; i.p. injection
  tumor accumulation: selectively accumulates in the tumor
[4]; plasma, 100 mg/kg i.p., single dose, read-out: plasma half-life (converted)
  half-life: 7.96 h
[4]; tumor, 100 mg/kg i.p., single dose, read-out: half-life in the tumor
  half-life: > 24 h
Preliminary safety test
  loss of body weight after one week of treatment: 3.5±2.4%
  time to full weight recovery after treatment cessation: 2 days
HT29
  Percent Growth: −67.1%
